{
  "source": "patent US10189828B2",
  "about": "“1-methylpyrazole-piperazine compounds having multimodal activity against pain” (LABORATORIOS DEL DR. ESTEVE S.A., priority 2014, dated 2019)",
  "system": "human σ1 receptor and human μ-opioid receptor",
  "assay": "μ and σ1 dual binding: human σ1 receptor radioligand assay ([3H](+)-pentazocine, transfected HEK-293 membranes) and human μ-opioid receptor radioligand assay ([3H]-DAMGO, transfected CHO-K1 membranes)",
  "set-up": "key to μ and σ1 dual binding: +: Both Ki-μ and Ki-σ1>=500 nM; ++: One Ki<500 nM while the other Ki is >=500 nM; +++: Both Ki-μ and Ki-σ1<500 nM; ++++: Both Ki-μ and Ki-σ1<100 nM",
  "settings": "for Ki: one combined class for Ki-μ and Ki-σ1",
  "data": [
    {"smiles": "Cn1nccc1C(c1ccc(F)cn1)N1CCN(CCc2ncccc2Cl)CC1", "note": "(stereo not drawn) [Example 43, 1-(2-(3-chloropyridin-2-yl)ethyl)-4-((5-fluoropyridin-2-yl)(1-methyl-1H-pyrazol-5-yl)methyl)piperazine]", "values": [
      {"measurement": "μ and σ1 dual binding", "result": "++"}
    ]},
    {"smiles": "Cn1nccc1C(c1ccccc1)N1CCN(CCc2cccc(NS(C)(=O)=O)n2)CC1", "note": "(stereo not drawn) [Example 44, N-(6-(2-(4-((1-methyl-1H-pyrazol-5-yl)(phenyl)methyl)piperazin-1-yl)ethyl)pyridin-2-yl)methanesulfonamide]", "values": [
      {"measurement": "Ki", "result": "≥ 0.5", "unit": "µM"}
    ]},
    {"smiles": "Cn1nccc1C(c1ccccc1)N1CCN(CCc2cccc(N(S(C)(=O)=O)S(C)(=O)=O)n2)CC1", "note": "(stereo not drawn) [Example 45, N-(6-(2-(4-((1-methyl-1H-pyrazol-5-yl)(phenyl)methyl)piperazin-1-yl)ethyl)pyridin-2-yl)-N-(methylsulfonyl)methanesulfonamide]", "values": [
      {"measurement": "Ki", "result": "≥ 0.5", "unit": "µM"}
    ]}
  ]
}
